This is an account of results in US20130197043A1, “USE OF THE FETAL REPROGRAMMING OF A PPAR AGONIST” (SNU R&DB FOUNDATION, priority 2010, published 2013).

The subject of the test is mice subjected to fetal reprogramming. Kind of test: Respiratory exchange ratio (RER) measurement using Oximax. Format: in vivo. On the procedure: RER is a ratio of the amount of CO2 exhaled to O2 inhaled in one breath. The RER is 1.0 when carbohydrate is mainly used for energy production, while the RER is 0.7 when fat is used. […] The RER experiment using Oximax (Columbus) was conducted in order to evaluate whether or not this increase in slow muscle fiber generation actually influenced mouse energy metabolism. […] Since the RER has a periodic value depending on the time, the RER difference between the two groups was more clearly compared by using AUL, in order to check the RER difference between the two groups. The average AUL value of the control group was 107.4±1.4. Whereas, the average AUL value of the mouse group subjected to fetal reprogramming was 102.2±2.8, which was lower than that of the mouse control group (FIG. 17).
The present inventors checked a difference in lipid oxidation capacity between the two groups by using the following equations.
Carbohydrate oxidation=(4.51·RER−3.18)·VO2
Lipid oxidation=1.67·(1−RER)·VO2
As the calculation result, it may be seen that the mouse group to which PPAR δ agonist (CMDD1111) was administered during the fetal programming period used more lipid by average 44% (6.6 mg/kgmin vs. 9.5 mg/kgmin) but less carbohydrate by 20% (48 mg/kgmin vs. 38 mg/kgmin), as compared with the control group to which vehicle was administered. Therefore, it may be seen that the mice in which PPAR δ was activated during the fetal programming period had increased slow muscle fiber generation and thus increased the lipometabolism.

As to `Cc1cc(SC(Cc2ccccc2)c2sc(-c3ccc(C(F)(F)F)cc3)nc2C)ccc1OCC(=O)O` (centres unmarked) [CMDD1111], where the note is “calculated from RER and VO2”, the carbohydrate oxidation was 38 mg/kgmin, the “less carbohydrate used versus vehicle control” value was 20%, the lipid oxidation is 9.5 mg/kgmin and the “more lipid used versus vehicle control” value was 44%. Further, the “average AUL value of RER” value (mouse group subjected to fetal reprogramming) is given as 102.2±2.8.
